# Biological target: Neuronal acetylcholine receptor subunit alpha-4/beta-2 (Rattus norvegicus, UniProt P09483+P12390)
# Assay: Inhibition of [3H]epibatidine binding to Nicotinic acetylcholine receptor alpha4-beta2 in rat cerebral cortex
# Sequence of Neuronal acetylcholine receptor subunit alpha-4/beta-2 (P09483 whole entry): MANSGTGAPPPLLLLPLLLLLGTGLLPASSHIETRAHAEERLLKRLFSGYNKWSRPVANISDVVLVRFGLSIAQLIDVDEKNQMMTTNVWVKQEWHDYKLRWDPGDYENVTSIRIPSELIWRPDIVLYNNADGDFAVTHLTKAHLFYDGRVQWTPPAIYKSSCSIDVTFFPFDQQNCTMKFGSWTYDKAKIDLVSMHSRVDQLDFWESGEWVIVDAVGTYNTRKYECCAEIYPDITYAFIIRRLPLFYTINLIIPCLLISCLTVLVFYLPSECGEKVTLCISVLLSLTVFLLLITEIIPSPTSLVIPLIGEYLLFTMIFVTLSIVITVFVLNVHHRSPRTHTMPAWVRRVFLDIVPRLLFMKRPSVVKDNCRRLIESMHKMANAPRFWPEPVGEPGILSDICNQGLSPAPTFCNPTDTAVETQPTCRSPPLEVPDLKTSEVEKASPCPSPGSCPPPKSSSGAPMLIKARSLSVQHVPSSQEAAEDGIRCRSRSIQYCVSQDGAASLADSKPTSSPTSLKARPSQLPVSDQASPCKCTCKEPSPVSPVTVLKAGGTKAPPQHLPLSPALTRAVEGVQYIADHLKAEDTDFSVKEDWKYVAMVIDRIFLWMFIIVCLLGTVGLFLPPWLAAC
# Sequence of Neuronal acetylcholine receptor subunit alpha-4/beta-2 (P12390 whole entry): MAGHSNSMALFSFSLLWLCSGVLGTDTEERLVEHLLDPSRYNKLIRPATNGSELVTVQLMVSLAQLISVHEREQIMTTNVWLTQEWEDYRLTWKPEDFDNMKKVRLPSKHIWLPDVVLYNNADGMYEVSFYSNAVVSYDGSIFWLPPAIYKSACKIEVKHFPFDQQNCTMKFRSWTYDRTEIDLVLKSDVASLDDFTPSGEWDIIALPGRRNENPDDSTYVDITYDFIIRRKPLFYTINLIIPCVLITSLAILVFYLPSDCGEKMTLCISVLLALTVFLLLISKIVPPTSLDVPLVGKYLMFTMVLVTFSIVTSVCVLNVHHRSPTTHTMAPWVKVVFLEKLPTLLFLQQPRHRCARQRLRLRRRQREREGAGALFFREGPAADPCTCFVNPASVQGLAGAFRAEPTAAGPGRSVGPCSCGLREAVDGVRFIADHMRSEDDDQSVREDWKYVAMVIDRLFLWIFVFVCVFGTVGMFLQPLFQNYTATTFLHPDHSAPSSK
smiles,measurement,value
Clc1cncc(C2CC3CCC2N3)c1 (stereo unspecified) [2-(5-Chloro-pyridin-3-yl)-7-aza-bicyclo[2.2.1]heptane],Ki,0.06 nM

# From BindingDB's records for doi:10.1021/jm040160b (Research Triangle Institute, 2005)
